{"source": "paper PMC9085577", "about": "“Discovery of a Potent and Orally Active Dual GPBAR1/CysLT1R Modulator for the Treatment of Metabolic Fatty Liver Disease” (Frontiers in Pharmacology, 2022)", "system": "liver transcriptome", "assay": "AmpliSeq liver transcriptome of HFD-F mice", "format": "in vivo", "conditions": "liver, HFD-F + compound 2 vs HFD-F", "from_the_text": "C57BL/6J male mice were fed a high fat diet (HFD) containing 59 KJ% fat plus 1% cholesterol, w/o sugar (ssniff ® EF R/M acc. D12330 mod. 22,7 ME/kg) and fructose (HFD-F) in drinking water (42 g/L), or normal chow diet for 61 days. Food intake was estimated as the difference of weight between the offered and the remnant amount of food at 3-days intervals. The food was provided as pressed pellets and the residual spillage was not considered. After 7 days, HFD-F mice were randomized to receive HFD-F alone or in combination with compound 2 (30 mg/kg/day) by gavage until the end of the experiment. Doses of each agent were chosen according to previously published data. Mice were housed under controlled temperature (22°C) and photoperiods (12:12-h light/dark cycle), allowed unrestricted access to standard mouse chow and tap water. The experimental protocol was approved by the Animal Care and Use Committee of the University of Perugia and by the Italian Minister of Health and Istituto Superiore di Sanità (Italy) and was in agreement with the European guidelines for use of experimental animals (permission n. 583/2017-PR). The general health of the animals was monitored daily by the Veterinarian in the animal facility. At the day of sacrifice, fed mice were deeply anesthetized with a mixture of tiletamine hypochloride and zolazepam hypochloride/xylazine at a dose of 50/5 mg/kg and sacrificed before 12 a.m.\nHigh-quality RNA was extracted from mice livers, using the Direct-zol™ RNA MiniPrep w/Zymo-Spin™ IIC Columns (Zymo Research, Irvine, CA) according to the manufacturer’s instructions. RNA quality and quantity were assessed with the Qubit® RNA HS Assay Kit and a Qubit 3.0 fluorometer (Invitrogen, Carlsbad, CA) followed by agarose gel electrophoresis. Libraries were generated using the Ion AmpliSeq™ Transcriptome Mouse Gene Expression Core Panel and Chef-Ready Kit (Comprehensive evaluation of AmpliSeq transcriptome, a whole transcriptome RNA sequencing methodology) (Thermo Fisher Scientific, Waltham, MA). Briefly, 10 ng of RNA was reverse transcribed with SuperScript™ Vilo™ cDNA Synthesis Kit (Thermo Fisher Scientific, Waltham, MA) before library preparation on the Ion Chef™ instrument (Thermo Fisher Scientific, Waltham, MA). The resulting cDNA was amplified to prepare barcoded libraries using the Ion Code™ PCR Plate, and the Ion AmpliSeq™ Transcriptome Mouse Gene Expression Core Panel (Thermo Fisher Scientific, Waltham, MA), Chef-Ready Kit, according to the manufacturer’s instructions. Barcoded libraries were combined to a final concentration of 100 p.m., and used to prepare Template-Positive Ion Sphere™ (Thermo Fisher Scientific, Waltham, MA) Particles to load on Ion 540™ Chips, using the Ion 540™ Kit-Chef (Thermo Fisher Scientific, Waltham, MA). Sequencing was performed on an Ion S5™ Sequencer with Torrent Suite™ Software v6 (Thermo Fisher Scientific, Waltham, MA). The analyses were performed with a range of fold <−2 and >+2 and a p value <0.05, using Transcriptome Analysis Console Software (version 4.0.1), certified for AmpliSeq analysis (Thermo-Fisher). The transcriptomic data have been deposited as dataset on Mendeley data repository (reference number linking to the repository: Fiorucci, Stefano; Biagioli, Michele; Marchianò, Silvia; Di Giorgio, Cristina (2021), “Discovery of potent dual GPBAR1/CysLT1R modulator for the treatment of metabolic fatty liver disease,” Mendeley Data, V1, doi: 10.17632/6dnrk9fc72.1)."}
{"smiles": "O=C(O)c1cccc(-c2ccc(OCc3ccc4ccccc4n3)cc2)c1", "note": "[Compound 2, 4'-(quinolin-2-ylmethoxy)-[1,1′-biphenyl]-3-carboxylic acid]", "values": [{"measurement": "Gm31649 transcript Fold Change", "value": 2.82}, {"measurement": "Gm36796 transcript Fold Change", "value": -2.15}, {"measurement": "Gnat1 transcript Fold Change", "value": -2.26}, {"measurement": "Gngt1 transcript Fold Change", "value": -2.64}, {"measurement": "Gpnmb transcript Fold Change", "value": -3.95}, {"measurement": "Hnf4aos transcript Fold Change", "value": 2.36}, {"measurement": "Hnrnpa0 transcript Fold Change", "value": -2.58}, {"measurement": "Hspa5 transcript Fold Change", "value": -2.37}, {"measurement": "Igip transcript Fold Change", "value": -2.32}, {"measurement": "Il1b transcript Fold Change", "value": -2.2}, {"measurement": "Il1rn transcript Fold Change", "value": -2.12}, {"measurement": "Insig2 transcript Fold Change", "value": -3.18}, {"measurement": "Itgam transcript Fold Change", "value": -5.37}, {"measurement": "Kif20a transcript Fold Change", "value": -2.25}, {"measurement": "LOC108167447 transcript Fold Change", "value": 2.42}, {"measurement": "LOC108168323 transcript Fold Change", "value": -2.25}, {"measurement": "Lactb2 transcript Fold Change", "value": -2.04}, {"measurement": "Ly6d transcript Fold Change", "value": -4.62}, {"measurement": "Meg3 transcript Fold Change", "value": 2.02}, {"measurement": "Mettl9 transcript Fold Change", "value": -2.22}, {"measurement": "Mki67 transcript Fold Change", "value": -2.36}, {"measurement": "Mogat1 transcript Fold Change", "value": -2.13}, {"measurement": "Mthfd2 transcript Fold Change", "value": -2.03}, {"measurement": "Mvd transcript Fold Change", "value": -2.06}, {"measurement": "Nat8 transcript Fold Change", "value": 2.38}, {"measurement": "Neat1 transcript Fold Change", "value": -2.87}, {"measurement": "Npas2 transcript Fold Change", "value": -3.98}, {"measurement": "Nr4a1 transcript Fold Change", "value": -2.25}, {"measurement": "Nrep transcript Fold Change", "value": 2.34}, {"measurement": "Nuak2 transcript Fold Change", "value": 2.15}, {"measurement": "Pcbp1 transcript Fold Change", "value": -4.32}, {"measurement": "Pcp4l1 transcript Fold Change", "value": 2.55}, {"measurement": "Pdilt transcript Fold Change", "value": 3.33}, {"measurement": "Pdpn transcript Fold Change", "value": -2.04}, {"measurement": "Per3 transcript Fold Change", "value": 4.98}, {"measurement": "Plau transcript Fold Change", "value": -4.02}, {"measurement": "Plaur transcript Fold Change", "value": -2.77}, {"measurement": "Pld6 transcript Fold Change", "value": 2.03}, {"measurement": "Plekhg3 transcript Fold Change", "value": 2.05}, {"measurement": "Plxnc1 transcript Fold Change", "value": -2.05}, {"measurement": "Pnpla3 transcript Fold Change", "value": -2.9}, {"measurement": "Podn transcript Fold Change", "value": 2.29}, {"measurement": "Ppp1r3c transcript Fold Change", "value": -2.05}, {"measurement": "Prox1 transcript Fold Change", "value": 2.06}, {"measurement": "Psat1 transcript Fold Change", "value": -2.69}, {"measurement": "Ptgs2 transcript Fold Change", "value": -4.87}, {"measurement": "Raet1e transcript Fold Change", "value": -2.18}, {"measurement": "Raet1d transcript Fold Change", "value": -2.32}, {"measurement": "Ralbp1 transcript Fold Change", "value": 3.61}, {"measurement": "Rhob transcript Fold Change", "value": -3.06}, {"measurement": "Rrs1 transcript Fold Change", "value": -2.27}, {"measurement": "Saa4 transcript Fold Change", "value": 5.34}, {"measurement": "Sart3 transcript Fold Change", "value": 2.37}, {"measurement": "Sbk1 transcript Fold Change", "value": 2.54}, {"measurement": "Sec11c transcript Fold Change", "value": -2.18}, {"measurement": "Senp1 transcript Fold Change", "value": 3.54}, {"measurement": "Serpina7 transcript Fold Change", "value": -2.84}, {"measurement": "Serpine1 transcript Fold Change", "value": -3.49}, {"measurement": "Slc16a1 transcript Fold Change", "value": -2.37}, {"measurement": "Slc17a8 transcript Fold Change", "value": -2.06}, {"measurement": "Slc39a8 transcript Fold Change", "value": -2.02}, {"measurement": "Slc40a1 transcript Fold Change", "value": -2.28}, {"measurement": "Slc46a3 transcript Fold Change", "value": 2.23}, {"measurement": "Spon2 transcript Fold Change", "value": -3.19}, {"measurement": "Sqle transcript Fold Change", "value": -2.72}, {"measurement": "Stfa3 transcript Fold Change", "value": -9.86}, {"measurement": "Taok3 transcript Fold Change", "value": 2.06}, {"measurement": "Tk1 transcript Fold Change", "value": 2.3}, {"measurement": "Tmx1 transcript Fold Change", "value": 2.28}, {"measurement": "Tnf transcript Fold Change", "value": -2.39}, {"measurement": "Tnfrsf23 transcript Fold Change", "value": -2.38}, {"measurement": "Tnnc1 transcript Fold Change", "value": 2.09}, {"measurement": "Tsku transcript Fold Change", "value": 2.15}, {"measurement": "Ubqln2 transcript Fold Change", "value": -2.65}, {"measurement": "Uhrf1 transcript Fold Change", "value": -2.03}, {"measurement": "Upp2 transcript Fold Change", "value": 2.5}, {"measurement": "Usp2 transcript Fold Change", "value": 3.94}, {"measurement": "Wrn transcript Fold Change", "value": 3.79}, {"measurement": "Zfp101 transcript Fold Change", "value": -2.1}, {"measurement": "Zfp445 transcript Fold Change", "value": 2.82}]}
